Experimental data taken from the supplement of paper PMC11451515.

Test system: NOMO1
Assay: cell viability relative to DMSO control; higher = less cytotoxic
Details: 48 h
Method in brief: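 Leukemia cells (NOMO1 or SEM, 500 cells/well; P12-Ichikawa, 1000 cells/well) were seeded in 5 μl in 1536-well plates after at least four passages of adaptation to each medium. They received library compounds in DMSO by pin dosing, 11 threefold points from 47 μM to 0.79 nM. Luminescence with CellTiter-Glo One was read after 48 h at 37°C. Viability is stated per plate relative to DMSO wells, with cell-free wells as background.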

[1] = HPLM + 10% dialyzed FBS, 0.000781 µM
[2] = HPLM + 10% dialyzed FBS, 0.00234 µM
[3] = HPLM + 10% dialyzed FBS, 0.00702 µM
[4] = HPLM + 10% dialyzed FBS, 0.0211 µM
[5] = HPLM + 10% dialyzed FBS, 0.0632 µM
[6] = HPLM + 10% dialyzed FBS, 0.19 µM
[7] = HPLM + 10% dialyzed FBS, 0.569 µM
[8] = HPLM + 10% dialyzed FBS, 1.71 µM
[9] = HPLM + 10% dialyzed FBS, 5.12 µM
[10] = HPLM + 10% dialyzed FBS, 15.4 µM
[11] = HPLM + 10% dialyzed FBS, 46.1 µM
[12] = RPMI 5 mM glucose + 10% FBS, 0.000781 µM
[13] = RPMI 5 mM glucose + 10% FBS, 0.00234 µM
[14] = RPMI 5 mM glucose + 10% FBS, 0.00702 µM
[15] = RPMI 5 mM glucose + 10% FBS, 0.0211 µM
[16] = RPMI 5 mM glucose + 10% FBS, 0.0632 µM
[17] = RPMI 5 mM glucose + 10% FBS, 0.19 µM
[18] = RPMI 5 mM glucose + 10% FBS, 0.569 µM
[19] = RPMI 5 mM glucose + 10% FBS, 1.71 µM
[20] = RPMI 5 mM glucose + 10% FBS, 5.12 µM
[21] = RPMI 5 mM glucose + 10% FBS, 15.4 µM
[22] = RPMI 5 mM glucose + 10% FBS, 46.1 µM
[23] = RPMI 5 mM glucose + 10% dialyzed FBS, 0.000781 µM
[24] = RPMI 5 mM glucose + 10% dialyzed FBS, 0.00234 µM
[25] = RPMI 5 mM glucose + 10% dialyzed FBS, 0.00702 µM
[26] = RPMI 5 mM glucose + 10% dialyzed FBS, 0.0211 µM
[27] = RPMI 5 mM glucose + 10% dialyzed FBS, 0.0632 µM
[28] = RPMI 5 mM glucose + 10% dialyzed FBS, 0.19 µM
[29] = RPMI 5 mM glucose + 10% dialyzed FBS, 0.569 µM
[30] = RPMI 5 mM glucose + 10% dialyzed FBS, 1.71 µM
[31] = RPMI 5 mM glucose + 10% dialyzed FBS, 5.12 µM
[32] = RPMI 5 mM glucose + 10% dialyzed FBS, 15.4 µM
[33] = RPMI 5 mM glucose + 10% dialyzed FBS, 46.1 µM

Row | Structure (SMILES) | cell viability [1] [%] | cell viability [2] [%] | cell viability [3] [%] | cell viability [4] [%] | cell viability [5] [%] | cell viability [6] [%] | cell viability [7] [%] | cell viability [8] [%] | cell viability [9] [%] | cell viability [10] [%] | cell viability [11] [%] | cell viability [12] [%] | cell viability [13] [%] | cell viability [14] [%] | cell viability [15] [%] | cell viability [16] [%] | cell viability [17] [%] | cell viability [18] [%] | cell viability [19] [%] | cell viability [20] [%] | cell viability [21] [%] | cell viability [22] [%] | cell viability [23] [%] | cell viability [24] [%] | cell viability [25] [%] | cell viability [26] [%] | cell viability [27] [%] | cell viability [28] [%] | cell viability [29] [%] | cell viability [30] [%] | cell viability [31] [%] | cell viability [32] [%] | cell viability [33] [%]
1 | Cc1ccc([S+](=O)([O-])Nc2nc3ccccc3nc2Nc2ccc3nsnc3c2)cc1 | 97.3 | 106 | 114 | 104 | 116 | 110 | 111 | 72.5 | 21.3 | 18 | 13.1 | 89.2 | 94.4 | 89.2 | 108 | 101 | 119 | 96.7 | 78.5 | 14 | 11.5 | 7.49 | 84.8 | 88.7 | 106 | 91.8 | 111 | 99.2 | 92.8 | 96.1 | 20.7 | 15.9 | 12.7
2 | CCCCCCCCCC(=O)N[C@@H](Cc1c[nH]c2ccccc12)C(=O)N[C@H](CC(N)=O)C(=O)N[C@@H](CC(=O)O)C(=O)N[C@@H]1C(=O)NCC(=O)N[C@@H](CCCN)C(=O)N[C@@H](CC(=O)O)C(=O)N[C@H](C)C(=O)N[C@@H](CC(=O)O)C(=O)NCC(=O)N[C@H](CO)C(=O)N[C@@H]([C@@H](C)CC(=O)O)C(=O)N[C@@H](CC(=O)c2ccccc2N)C(=O)O[C@@H]1C | 105 | 118 | 118 | 132 | 108 | 123 | 119 | 133 | 149 | 106 | 114 | 98.9 | 112 | 102 | 122 | 111 | 104 | 121 | 124 | 108 | 117 | 111 | 103 | 116 | 103 | 111 | 125 | 106 | 141 | 131 | 102 | 118 | 80.3
3 | CCCCC(C=O)NC(=O)C(CC(C)C)NC(=O)OCc1ccccc1 (stereo not drawn) | 104 | 98.5 | 86.4 | 94.7 | 85.5 | 83 | 92.2 | 82.7 | 89.4 | 82 | 55.9 | 91.8 | 93.3 | 90.1 | 102 | 93.7 | 88.9 | 85.4 | 72.7 | 80.2 | 68.6 | 77.6 | 103 | 93.3 | 95.1 | 97.4 | 101 | 83.9 | 90.4 | 82.2 | 77.6 | 80.9 | 70.1
4 | CC[C@]12\C=C/CN3CC[C@]4([C@@H](N(C)C5=CC(=C(C=C45)[C@]6(C[C@H]7C[C@H](CN(C7)CC8=C6[NH]C9=C8C=CC=C9)C(C)(F)F)C(=O)OC)OC)[C@](O)([C@@H]1OC(C)=O)C(=O)OC)[C@H]23 | 102 | 102 | 97.5 | 72.8 | 28.2 | 28.1 | 36 | 38.6 | 36.8 | 36.1 | 28.7 | 95 | 96.9 | 91.9 | 85.2 | 24.5 | 18.5 | 21.6 | 22.3 | 22.3 | 23.7 | 20.1 | 91.5 | 92.4 | 91.6 | 93.7 | 57.5 | 30.6 | 24.2 | 26.3 | 27.5 | 26.8 | 20.8
5 | NC(=O)c1cccc2cn(-c3ccc([C@@H]4CCCNC4)cc3)nc12 | 90.2 | 97.4 | 114 | 103 | 118 | 122 | 114 | 111 | 98.2 | 117 | 69 | 83.5 | 82.2 | 100 | 102 | 93.8 | 97.1 | 91.5 | 106 | 103 | 105 | 82.2 | 83.8 | 111 | 108 | 111 | 108 | 122 | 114 | 102 | 110 | 118 | 98.8
6 | CO/C1=C/C(C)=C\[C@@H](C)[C@@H](O)[C@@H](C)C/C(C)=C\C=C/[C@H](OC)[C@@H]([C@@H](C)[C@@H](O)[C@H](C)[C@@]2(O)C[C@@H](O)[C@H](C)[C@@H](C(C)C)O2)OC1=O | 79.5 | 97.1 | 91.8 | 90.6 | 58.8 | 12.1 | 12.7 | 11.1 | 12.6 | 10.5 | 9.72 | 105 | 95.9 | 107 | 82.3 | 88.7 | 12.5 | 9.12 | 7.87 | 9.62 | 8.77 | 7.13 | 99.8 | 103 | 104 | 83 | 73.7 | 8.37 | 8.28 | 8.09 | 7.93 | 6.37 | 6.62
7 | CC(C)c1ccc(Cn2ccc3c4c(N)nc(NC5CC5)nc4ccc32)cc1 | 116 | 114 | 116 | 101 | 126 | 123 | 70.2 | 53.1 | 38.8 | 39.3 | 4.39 | 121 | 116 | 125 | 120 | 120 | 130 | 123 | 113 | 100 | 30.9 | 4.9 | 110 | 109 | 104 | 107 | 133 | 124 | 128 | 84.7 | 50.3 | 49.8 | 3.66
8 | CN1\C(=C(\O)C2=C(C=CC=C2)[S+]1([O-])=O)C(=O)NC3=CC=CC=N3 | 107 | 138 | 110 | 122 | 122 | 129 | 105 | 107 | 102 | 58.2 | 29.1 | 109 | 101 | 108 | 116 | 117 | 123 | 113 | 109 | 123 | 43.9 | 21.2 | 87.5 | 103 | 100 | 100 | 113 | 99.2 | 116 | 94.6 | 99.6 | 108 | 35.3
9 | O=C1Nc2ccc(I)cc2/C1=C/c1cc(Br)c(O)c(Br)c1 | 111 | 96.5 | 109 | 106 | 109 | 111 | 98.6 | 99.9 | 118 | 101 | 78.9 | 86.6 | 98.1 | 96.5 | 102 | 96.2 | 100 | 96.8 | 97.6 | 102 | 88.6 | 83 | 95.4 | 93.3 | 90.9 | 92.8 | 92 | 85.9 | 104 | 96.8 | 101 | 95.3 | 76.6
10 | COc1cc2c(Nc3ccc(Br)cc3F)ncnc2cc1OCC1CCN(C)CC1 | 93.2 | 93.5 | 88.9 | 90.1 | 75 | 85.5 | 81 | 71 | 74.8 | 31.5 | 69.8 | 79 | 81.7 | 76.5 | 75.5 | 75.4 | 78.1 | 77 | 79.7 | 90.3 | 72.6 | 73 | 82.4 | 79.1 | 82.2 | 88.4 | 88.2 | 85.2 | 86.8 | 70.7 | 88.6 | 41.1 | 84.4
11 | COc1ccc2[nH]c([S+]([O-])Cc3ncc(C)c(OC)c3C)nc2c1 (stereo not drawn) | 89.2 | 78.3 | 90.9 | 88.4 | 95.9 | 83.7 | 85.5 | 89.9 | 87.3 | 86.6 | 59.8 | 74.9 | 100 | 78.3 | 97 | 80.7 | 92 | 90 | 100 | 96.3 | 93.5 | 89.1 | 70.7 | 91.7 | 68 | 98.7 | 93.4 | 95.6 | 87.8 | 97.9 | 86 | 91.1 | 82.3
12 | C[S+](=O)([O-])c1cccc(CNc2nc(Nc3ccc4c(c3)CCC(=O)N4)ncc2C(F)(F)F)c1 |  |  |  |  |  |  |  |  |  |  |  | 99.6 | 113 | 116 | 115 | 108 | 114 | 113 | 100 | 93.3 | 91.6 | 53.9 | 107 | 109 | 114 | 129 | 99.9 | 115 | 105 | 111 | 108 | 86.1 | 58.9
13 | Cc1cc(Nc2nc(N[C@@H](C)c3ccc(F)cc3)c(C#N)cc2F)n[nH]1 | 108 | 101 | 109 | 113 | 93.9 | 99.9 | 114 | 92.3 | 36.4 | 68.8 | 58.6 | 88.9 | 94.7 | 91.2 | 99.2 | 90.9 | 81.2 | 89.5 | 83 | 20.7 | 36.1 | 45.5 | 79.8 | 104 | 104 | 103 | 96.8 | 97.5 | 98.7 | 91.1 | 28.3 | 36.1 | 55
